Data as given in US20050074850A1, “Novel calcium channels and uses thereof” (Synta Pharmaceuticals Corp., priority 2003, published 2005).

Key:
[1] = test system: L-type calcium channel; assay: Whole-cell patch clamp of L-type currents in Jurkat T cells; format: cell-based, human
Procedure: In these patch clamp experiments, Jurkat cells that were grown in suspension cultures were washed once with standard external solution and plated directly onto the experimental bath chamber. Cells were kept in a standard modified Ringer's solution of the following composition (in mM): […] pipette-filling solutions for voltage-gated L-type channels contained (in mM): […], the above solution was replaced by an otherwise identical extracellular solution in which 10 μM Bay K was added to the bath. Intracellular pipette-filling solutions for voltage-gated L-type channels in some cases contained (in mM): Cs-glutamate 120, NaCl 8, MgCl2 1, MgATP 2, NaGTP 0.3, Cs-BAPTA 10, Hepes-CsOH 10, pH 7.2. Patch clamp experiments were performed in the tight-seal whole-cell configuration at 24±2° C. High-resolution current recordings were acquired by a computer-based patch clamp amplifier system (EPC-9, HEKA, Lambrecht, Germany). Patch pipettes had resistances between 2-4 MΩ after filling with the standard intracellular solution. For L-type current measurements the holding potential was −80 mV and the duration of the ramp was 100 ms for optimal L-type current size. All voltages were corrected for a liquid junction potential of 10 mV between external and internal solutions. Currents were filtered at 2.3 kHz and digitized at 100 μs intervals. Capacitive currents and series resistance were determined and corrected before each voltage ramp using the automatic capacitance compensation of the EPC-9. For ICRAC analysis, the very first ramps prior to current activation were digitally filtered at 2 kHz, pooled and used for leak-subtraction of all subsequent current records. The low-resolution temporal development of currents at a given potential was extracted from the leak-corrected individual ramp current records by measuring the current amplitudes at voltages of −80 mV or +80 mV, respectively. Similarly, one of the first ramps could be used as leak-subtraction for L-type currents, as the currents developed over a time course of 6-8 seconds, indicating recovery from inactivation. Where applicable, statistical errors of averaged data are given as means±S.E.M. with n determinations and statistical significance was assessed by Student's t-test.
For measurements of the L-type current with barium as the charge carrier, whole cell voltage-clamp recordings were performed using an Axopatch 200 amplifier (Axon Instruments) in a bath consisting of 135 mM choline Cl, 10 mM HEPES, 1 mM MgCl2 and 20 mM BaCl2, adjusted to a pH of 7.2 with CsOH. The internal solution consisted of 135 mM CsCl, 10 mM HEPES, 1 mM EGTA, 1 mM EDTA, and 4 mM Mg-ATP, adjusted to a pH of 7.2 with CsOH. Pclamp 8 software was used for data acquisition (Axon Instruments). For square pulse protocols, data were filtered at 2 kHz and sampled at 10 kHz. Patch electrodes were 3.8-4.4 MΩ when filled with internal solution. Leak subtraction was performed online using a P/-4 protocol. 75% series resistance compensation was used with a 10 μs lag. Statistical references indicate the mean±s.e. After forming the whole-cell patch, cells were lifted off the bottom of the dish and placed in front of an array of perfusion tubes made of 250 μm internal diameter quartz tubing (Polymicro Technologies, Phoenix, Ariz.) connected by Teflon tubing to glass reservoirs. […]

[2] = test system: L-type calcium channels; assay: DM-BODIPY binding competition by flow cytometry in T cell leukemia cell lines; parameters: species or system human; details: ten-fold excess (S)-(−)-Bay K8644 over 1 μM DM-BODIPY; Jurkat, MOLT-4, CEM, Loucy, SUP-T1
Description: In another method of determining whether a test compound is binding L-type channels, competition with DM-BODIPY dyes is used. Such assays employ DM-BODIPY (Molecular Probes, Eugene, […].), a dihydropyridine analog that is covalently attached to the BODIPY dye. The DM-BODIPY dye binds to L-type calcium channels on the cell surface and can be assessed by flow-cytometry. Accordingly, a test compound can be used in a competition assay with a DM-BODIPY dye. If the test compound is able to compete for binding of the DM-BODIPY dye to a cell expressing an LVCa(v) polypeptide, the test compound is a candidate compound for binding to the LVCa(v) polypeptide and being a modulator of the activity of that channel.
To ascertain the levels of L-type channel expression at the cell surface, cells were stained with an ester form of DM-BODIPY (Molecular Probes, Inc., Eugene, Oreg., catalog no. D-2183) at final concentration of 1 μM in PBS (phosphate buffered saline). Competition of DM-BODIPY binding was performed with a ten-fold excess (S)-(−)-Bay K8644 (Sigma-Aldrich). Analysis was performed using flow cytometry (Becton Dickinson). FIG. 22A illustrates the results of the DM-BODIPY binding experiments. […]

[3] = test system: L-type channels; assay: DM-BODIPY staining (flow cytometry) of siRNA-expressing Jurkat cells; format: cell-based, human
Procedure: (§1) This consensus sequence was used in the design of a sequence that would express an siRNA for stable expression of a hairpin loop containing the consensus sequence. The sequence was cloned into the psiRNA-hHlzeo vector (Invitrogen, San Diego, Calif.), the sequence was verified, and Jurkat cells were transfected with it. To select clones that were positive for expression of the hairpin, 400 micrograms/ml of zeocin was added 24 hours after transfection. […] Independent, individual clones were also generated in parallel. […] Thus, loss of L-type channel expression also correlates with decreased proliferation of Jurkat T cells.
First, control wild type (WT) and L-type siRNA-expressing (LT1) Jurkat T cells were stained with DM-BODIPY and analyzed by flow cytometry (Un indicates unstained cells). The LT1 cells were transfected with an siRNA sequence that targets the majority of L-type channels, and was designed based on sequence consensus of the human L-type calcium channels.

[4] = test system: Jurkat T cells; assay: Growth and cell numbers of siRNA-expressing Jurkat clones; format: cell-based, human
Procedure: as §1
Jurkat cells were stably transfected with each of the siRNA constructs and pools of clones of each were analyzed. RT-PCR was performed on samples from the clones to detect expression of Ca(v)1.3.

[5] = test system: L-type channels; assay: Calcium flux in siRNA-expressing Jurkat cells; format: cell-based, human; details: pool of zeocin-resistant Jurkat clones
Procedure: To assess the effect of expressing the mutant three-domain Ca(v)1.3 on calcium influx in cells, bulk calcium assays were performed using fura-2 (Molecular Probes) ratiometric imaging according to the manufacturer's recommendations. Fura-2 is a calcium-sensitive dye. When excited at short ultra-violet wavelengths (340 nm) the fluorescence of fura-2 increases with increasing calcium concentration, whereas fluorescence decreases with increasing calcium concentration at longer wavelengths (380 nm). By forming a ratio of successive images obtained at each wavelength, a measure of calcium concentration inside the fura-2 loaded cell is obtained.
as §1

COC(=O)C1=C(C)NC(C)=C([N+](=O)[O-])[C@H]1c1ccccc1C(F)(F)F [BayK8644, (S)-(−)-Bay K8644]
reversibility of agonist effect when washed out ([1]; Jurkat cells): reversible | cells with discernible DHPR (L-type calcium channel) currents ([1]; Jurkat cells tested in the presence of BayK8644): Five of eleven | average current densities ([1]; Jurkat cells, 10 μM BayK8644, calcium as charge carrier, n=5, +/− s.e.m.): 1+/−0.3 pA/pF | peak current increase ([1]; Jurkat cells, in presence of the L-type agonist, calcium as charge carrier): five-fold | DM-BODIPY binding competed by BayK8644 [2]: competed

CCCCCCCCCCCCCC(=O)O[C@@H]1[C@@H](C)[C@@]2(O)[C@@H](C=C(CO)C[C@]3(O)C(=O)C(C)=C[C@@H]23)[C@@H]2C(C)(C)[C@]12OC(C)=O [PMA, phorbol 12-myristate 13-acetate]
L-type current amplitude ([1]; Jurkat cells pre-treated with PMA): significantly increased

LT1 (DNA AACTGTGAGCTGGACAAGAA; chemistry not given here)
reduction in DM-BODIPY binding ([3]; independent, individual Jurkat clones): approximately 90% | DM-BODIPY binding ([3]; pool of zeocin-resistant Jurkat clones): decrease | decrease of surface expression of L-type channels ([3]; stable siRNA expression in Jurkat T cells, DM-BODIPY staining): about 90% | growth of clones ([4]; individual siRNA-expressing Jurkat clones): slow rate of growth | growth of clones ([4]; individual siRNA-expressing Jurkat clones, listed as consensus sequence): grew very slowly | growth of clones ([4]; pool of zeocin-resistant Jurkat clones, bulk culture): grew more slowly | calcium flux [5]: marked decrease
